From paper PMC3904506 (International journal of biological macromolecules, 2013) come the findings set out here.

Test [1] has as its target T1, CDA variant Q27/A70 (Homo sapiens, UniProt P32320, K27Q). In words: CDA activity assay, substrate kinetics, Q27/A70 variant. Conditions: 37 °C.
In test [2] the target is T2, CDA variant K27/A70 (Homo sapiens, UniProt P32320). In words: CDA activity assay, substrate kinetics, K27/A70 variant.
Test [3] deals with T3, CDA variant K27/T70 (Homo sapiens, UniProt P32320, A70T). Kind of test: CDA activity assay, substrate kinetics, K27/T70 variant. To be noted: 37 °C.
Test [4] concerns the target T4, CDA mutant E24Q (Homo sapiens, UniProt P32320, E24Q). In words: CDA activity assay, substrate kinetics, E24Q mutant. Conditions: 37 °C.
Test [5] addresses T1, CDA variant Q27/A70. In words: Inhibition of deoxycytidine deamination, Q27/A70 variant.
Test [6] addresses T4, CDA mutant E24Q. In words: Inhibition of deoxycytidine deamination, E24Q mutant.
The target of test [7] is T3, CDA variant K27/T70. In words: Inhibition of deoxycytidine deamination, K27/T70 variant.
Test [8] concerns the target T4, CDA mutant E24Q. In words: Oxidative resistance experiments, E24Q mutant. In kind it is biochemical.
For test [9], the target named is T1, CDA variant Q27/A70. In words: Oxidative resistance experiments, Q27/A70 variant. In kind it is biochemical.
Test [10] deals with T2, CDA variant K27/A70. Kind of test: Oxidative resistance experiments, K27/A70 variant. In kind it is biochemical.
Test [11] concerns the target T3, CDA variant K27/T70. Kind of test: Oxidative resistance experiments, K27/T70 variant. In kind it is biochemical.
Test [12] has as its target T2, CDA variant K27/A70. Kind of test: Inhibition of deoxycytidine deamination, K27/A70 variant. To be noted: double-reciprocal plots, substrate deoxycytidine.
Where [13] appears, read: read-out: K0.5 (concentration at 50% inhibition of activity), NaOCl.
Where [14] appears, read: 100 μM NaOCl, 60 min of incubation, 37 °C.
[15] abbreviates: Q27/A70, double-reciprocal plots, substrate deoxycytidine.
Setting [16] is: K27/T70, double-reciprocal plots, substrate deoxycytidine.

Structures can show the parent of a compound that is named as a salt. Where two headings read alike, the source gives them in different places.

T4 sequence (P32320 whole entry E24Q): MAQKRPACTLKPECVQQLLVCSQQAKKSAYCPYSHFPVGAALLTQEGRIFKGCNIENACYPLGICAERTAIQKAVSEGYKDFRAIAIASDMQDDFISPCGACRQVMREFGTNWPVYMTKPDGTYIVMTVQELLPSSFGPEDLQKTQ
T3 sequence (P32320 whole entry A70T): as the sequence (P32320 whole entry E24Q) above, with Q24E, A70T counted along it
T1 sequence (P32320 whole entry K27Q): as the sequence (P32320 whole entry E24Q) above, with Q24E, K27Q counted along it

For the compound `Nc1ccn([C@H]2CC[C@@H](CO)O2)c(=O)n1` [2′,3′-CdR, 2′,3′-dideoxycytidine], the Km result in test [1], in test [2] (37 °C), in test [3] and in [4] was “not substrate” each time.

For `Nc1ccn([C@@H]2O[C@H](CO)[C@@H](O)[C@H]2O)c(=O)c1` [3-Deaza-cytidine], the Ki in test [5] worked out at 1.8 µM; in test [6], 2.9 µM; in test [7] it was 2.4 µM.

Regarding `Nc1ccn([C@H]2C[C@H](O)[C@@H](CO)O2)c(=O)n1` [CdR, 2′-deoxycytidine], the “enthalpy of binding ΔH (van't Hoff plot)” value in test [2] (temperature range 10–35 °C) is 3.57 kcal/mol; in test [2] (temperature range 35–80 °C) it was -8.88 kcal/mol.

As for `Nc1ncn([C@@H]2O[C@H](CO)[C@@H](O)[C@@H]2O)c(=O)n1` [Fazarabine, 1-β-D-arabinofuranosyl-5-azacytosine], the “increase in catalytic efficiency with respect to the Q27/A70 and K27/T70 variants” value in test [2] was 3 fold.

Consider `OO` [H2O2, hydrogen peroxide], for which the IC50 in test [8] (read-out: K0.5, H2O2) was 8000 µM; in test [9] (read-out: K0.5, H2O2), 15000 µM; in test [10] (read-out: K0.5, H2O2) it was 23500 µM; in test [11] (read-out: K0.5, H2O2) it was 11500 µM.

With `[Na+].[O-]Cl` [NaOCl, sodium hypochlorite], the residual activity in test [8] (NaOCl (100 μM, Fig. 6A), 60 min of incubation) worked out at 97%; in test [9] (setting [14]) it was 49%; in test [10] (setting [14]), 32%; in [11] (setting [14]) it was 27.5%. The IC50 in [8] (setting [13]) was 1000 µM; in [9] (setting [13]), 100 µM; in test [10] (setting [13]), 60 µM.

Take `Nc1ncc([C@@H]2O[C@H](CO)[C@@H](O)[C@H]2O)c(=O)[nH]1` [Pseudoisocytidine-HCl]: the Ki in test [5] (setting [15]) came to 46 µM; in test [12] it was 28 µM; in test [7] (setting [16]), 60 µM.

`O=C1NC(O)CCN1[C@H]1C[C@H](O)[C@@H](CO)O1` (stereo partly drawn) [Tetrahydro-2′-deoxyuridine]: the Ki in test [5] (setting [15]) came to 0.26 µM; in [12] it was 0.04 µM; in test [7] (setting [16]), 0.26 µM.
